Laboratory results from PubChem BioAssay AID248 (DTP/NCI, 2004).
Several values for one entry are separate records, joined by “and”; a condition that tells them apart may be missing. Equal entries are not always repeated. Toxic doses and inconclusive results are not listed. Cut-off read from the data, not from the text of the source: active = T/C of 150% or more; inactive = T/C below 125%. Square brackets hold non-standard residues; d marks the D form. Peptide text beside a SMILES is read from it. ξ: configuration not given here. ξV = CC(C)C(N)C(=O)O

Test system: L1210 leukemia ip in BDF1 mice, survival T/C
Experiment: NCI In Vivo Anticancer Drug Screen. Data for tumor model L1210 Leukemia (intraperitoneal) in B6D2F1 (BDF1) mice
Conditions: endpoint: mean survival time, higher = longer survival
Outline: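 Read-out is survival time, reported as the treated-group measurement over the vehicle-control measurement.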

[1] = dose: 100.0 mg/kg/injection, schedule: Q01DX001 (ip), vehicle: saline
[2] = dose: 200.0 mg/kg/injection, schedule: Q01DX001 (ip), vehicle: saline
[3] = dose: 400.0 mg/kg/injection, schedule: Q01DX001 (ip), vehicle: saline
[4] = dose: 100.0 mg/kg/injection, schedule: Q01DX001 (ip), vehicle: carboxymethylcellulose (CMC)
[5] = dose: 200.0 mg/kg/injection, schedule: Q01DX001 (ip), vehicle: carboxymethylcellulose (CMC)
[6] = dose: 400.0 mg/kg/injection, schedule: Q01DX001 (ip), vehicle: carboxymethylcellulose (CMC)
[7] = dose: 50.0 mg/kg/injection, schedule: Q01DX009 (ip), vehicle: saline with Tween-80
[8] = dose: 100.0 mg/kg/injection, schedule: Q01DX009 (ip), vehicle: saline with Tween-80
[9] = dose: 200.0 mg/kg/injection, schedule: Q01DX009 (ip), vehicle: saline with Tween-80
[10] = dose: 100.0 mg/kg/injection, schedule: Q01DX001 (ip), vehicle: saline with Tween-80
[11] = dose: 400.0 mg/kg/injection, schedule: Q01DX001 (ip), vehicle: saline with Tween-80
[12] = dose: 100.0 mg/kg/injection, schedule: Q04DX003 (ip), vehicle: saline
[13] = dose: 200.0 mg/kg/injection, schedule: Q04DX003 (ip), vehicle: saline
[14] = dose: 400.0 mg/kg/injection, schedule: Q04DX003 (ip), vehicle: saline
[15] = dose: 100.0 mg/kg/injection, schedule: Q04DX003 (ip), vehicle: saline with Tween-80
[16] = dose: 100.0 mg/kg/injection, schedule: Q04DX003 (ip), vehicle: Klucel (hydroxypropylcellulose) (HPC)
[17] = dose: 100.0 mg/kg/injection, schedule: Q04DX002 (ip), vehicle: saline with Tween-80
[18] = dose: 200.0 mg/kg/injection, schedule: Q04DX002 (ip), vehicle: saline with Tween-80
[19] = dose: 400.0 mg/kg/injection, schedule: Q04DX002 (ip), vehicle: saline with Tween-80
[20] = dose: 25.0 mg/kg/injection, schedule: Q04DX003 (ip), vehicle: Klucel (hydroxypropylcellulose) (HPC)
[21] = dose: 50.0 mg/kg/injection, schedule: Q04DX003 (ip), vehicle: Klucel (hydroxypropylcellulose) (HPC)
[22] = dose: 75.0 mg/kg/injection, schedule: Q01DX009 (ip), vehicle: Klucel (hydroxypropylcellulose) (HPC)
[23] = dose: 100.0 mg/kg/injection, schedule: Q01DX009 (ip), vehicle: Klucel (hydroxypropylcellulose) (HPC)
[24] = dose: 150.0 mg/kg/injection, schedule: Q01DX009 (ip), vehicle: Klucel (hydroxypropylcellulose) (HPC)
[25] = dose: 200.0 mg/kg/injection, schedule: Q01DX009 (ip), vehicle: Klucel (hydroxypropylcellulose) (HPC)

Measured: T/C

CC1=CC(=O)c2ccccc2C1=O
inactive: dose: 10.0 mg/kg/injection, schedule: Q01DX015 (ip), vehicle: carboxymethylcellulose (CMC) 90 % of control | dose: 15.0 mg/kg/injection, schedule: Q01DX015 (ip), vehicle: carboxymethylcellulose (CMC) 90 % of control | dose: 20.0 mg/kg/injection, schedule: Q01DX015 (ip), vehicle: carboxymethylcellulose (CMC) 90 % of control | dose: 43.0 mg/kg/injection, schedule: Q01DX001 (ip), vehicle: carboxymethylcellulose (CMC) 97 % of control | dose: 64.0 mg/kg/injection, schedule: Q01DX001 (ip), vehicle: carboxymethylcellulose (CMC) 102 % of control | dose: 85.0 mg/kg/injection, schedule: Q01DX001 (ip), vehicle: carboxymethylcellulose (CMC) 108 % of control

CNc1ncccn1
inactive: dose: 50.0 mg/kg/injection, schedule: Q01DX001 (ip), vehicle: saline 109 % of control | [1] 103 % of control | [2] 107 % of control | [3] 107 % of control

C/C=C(/C)c1ccccc1
inactive: [4] 95 % of control | [5] 95 % of control | [6] 95 % of control

COc1ccc(C(=O)NC2C(OC(C)=O)OC(COC(C)=O)C(OC(C)=O)C2OC(C)=O)cc1 (centres undefined)
inactive: [1] 98 % of control and 101 % of control | [2] 96 % of control and 106 % of control | [3] 90 % of control and 89 % of control

CCOC1(C)OC2CCCCC2O1 (centres undefined)
inactive: [7] 92 % of control | [8] 92 % of control | [9] 92 % of control

CN(C)CCCN=Cc1[nH]c(=S)[nH]c(=O)c1Cc1ccc(Cl)cc1
inactive: [10] 102 % of control | dose: 200.0 mg/kg/injection, schedule: Q01DX001 (ip), vehicle: saline with Tween-80 111 % of control | [11] 101 % of control

O=C1C=CC(=O)c2c1ccc1ccccc21
inactive: dose: 12.5 mg/kg/injection, schedule: Q04DX003 (ip), vehicle: saline 102 % of control | dose: 25.0 mg/kg/injection, schedule: Q04DX003 (ip), vehicle: saline 96 % of control | dose: 50.0 mg/kg/injection, schedule: Q04DX003 (ip), vehicle: saline 101 % of control

CC(C)(CO)NC(=O)CC1CCCCC1
inactive: [8] 96 % of control | [9] 97 % of control | dose: 400.0 mg/kg/injection, schedule: Q01DX009 (ip), vehicle: saline with Tween-80 97 % of control

COc1ccc(CO/N=C2/CC(NOCc3ccc(OC)cc3)NC(=O)N2)cc1 (centres undefined)
inactive: [12] 90 % of control | [13] 90 % of control | [14] 86 % of control

O=C(O)/C=C\C(=O)Nc1ccc(F)cc1
inactive: [15] 98 % of control | dose: 200.0 mg/kg/injection, schedule: Q04DX003 (ip), vehicle: saline with Tween-80 101 % of control | dose: 400.0 mg/kg/injection, schedule: Q04DX003 (ip), vehicle: saline with Tween-80 101 % of control

O=C1NC(=O)/C(=C\c2ccc(OCc3ccccc3)c(OCc3ccccc3)c2)N1
inactive: [10] 88 % of control | [11] 96 % of control

COC(=O)C(CCCCN=Cc1ccccc1O)N=Cc1ccccc1O.[Cu] (centres undefined)
inactive: dose: 6.25 mg/kg/injection, schedule: Q01DX009 (ip), vehicle: saline with Tween-80 96 % of control | dose: 12.5 mg/kg/injection, schedule: Q01DX009 (ip), vehicle: saline with Tween-80 93 % of control | dose: 25.0 mg/kg/injection, schedule: Q01DX009 (ip), vehicle: saline with Tween-80 96 % of control and 98 % of control | [7] 103 % of control | [15] 96 % of control

COC1=CC2C3=C(C(NC=O)CCc4cc(OC)c(OC)c(OC)c43)C2C1=O (centres undefined)
inactive: [16] 95 % of control | dose: 200.0 mg/kg/injection, schedule: Q04DX003 (ip), vehicle: Klucel (hydroxypropylcellulose) (HPC) 100 % of control | dose: 400.0 mg/kg/injection, schedule: Q04DX003 (ip), vehicle: Klucel (hydroxypropylcellulose) (HPC) 102 % of control

CCCS(=O)(=O)N1CCCC1
inactive: [17] 99 % of control | [18] 105 % of control | [19] 99 % of control

CC(C)(Cc1ccccc1)C(C(=O)O)C(=O)O
inactive: dose: 100.0 mg/kg/injection, schedule: Q01DX001 (ip), vehicle: gum acacia 91 % of control | dose: 200.0 mg/kg/injection, schedule: Q01DX001 (ip), vehicle: gum acacia 95 % of control

O=C(Nc1ccc(F)c([N+](=O)[O-])c1)Oc1cc(=O)oc2ccccc12
inactive: [20] 104 % of control | [21] 101 % of control | dose: 75.0 mg/kg/injection, schedule: Q01DX001 (ip), vehicle: Klucel (hydroxypropylcellulose) (HPC) 102 % of control | [22] 93 % of control and 103 % of control | [23] 103 % of control and 92 % of control | dose: 100.0 mg/kg/injection, schedule: Q04DX002 (ip), vehicle: Klucel (hydroxypropylcellulose) (HPC) 95 % of control and 107 % of control | [16] 98 % of control | dose: 150.0 mg/kg/injection, schedule: Q01DX001 (ip), vehicle: Klucel (hydroxypropylcellulose) (HPC) 102 % of control | [24] 87 % of control and 92 % of control | [25] 97 % of control | dose: 200.0 mg/kg/injection, schedule: Q04DX002 (ip), vehicle: Klucel (hydroxypropylcellulose) (HPC) 100 % of control and 102 % of control | dose: 300.0 mg/kg/injection, schedule: Q01DX001 (ip), vehicle: Klucel (hydroxypropylcellulose) (HPC) 107 % of control | dose: 400.0 mg/kg/injection, schedule: Q04DX002 (ip), vehicle: Klucel (hydroxypropylcellulose) (HPC) 95 % of control and 96 % of control

CCN(CC)CN1C(=O)C(=O)c2ccccc21
inactive: dose: 100.0 mg/kg/injection, schedule: Q01DX001 (ip), vehicle: steriod suspending solution 92 % of control | dose: 200.0 mg/kg/injection, schedule: Q01DX001 (ip), vehicle: steriod suspending solution 108 % of control | dose: 400.0 mg/kg/injection, schedule: Q01DX001 (ip), vehicle: steriod suspending solution 114 % of control

COc1cc(C=Nc2ccc(C)c(C)c2)ccc1OC(=O)c1ccccc1
inactive: [17] 106 % of control | [18] 106 % of control | [19] 95 % of control

O=S(=O)(F)c1cccc2nsnc12
inactive: [20] 95 % of control | [21] 101 % of control | [16] 87 % of control | dose: 100.0 mg/kg/injection, schedule: Q04DX003 (ip), vehicle: carboxymethylcellulose (CMC) 93 % of control | dose: 400.0 mg/kg/injection, schedule: Q04DX003 (ip), vehicle: carboxymethylcellulose (CMC) 104 % of control

Cc1c(O)c2ccc3ccccc3c2oc1=O
inactive: [12] 97 % of control | [13] 91 % of control

COc1cc(/C=C2\CCOC2=O)c([N+](=O)[O-])cc1OC
inactive: dose: 50.0 mg/kg/injection, schedule: Q01DX001 (ip), vehicle: carboxymethylcellulose (CMC) 96 % of control | [4] 94 % of control | [5] 94 % of control | [6] 90 % of control

COc1ccccc1/C=C\C=O
inactive: [4] 103 % of control | [5] 100 % of control | [6] 97 % of control

C=CCCCCCCCCC(=O)NC/C(Br)=C/Br
inactive: [22] 103 % of control | [24] 108 % of control | dose: 300.0 mg/kg/injection, schedule: Q01DX009 (ip), vehicle: Klucel (hydroxypropylcellulose) (HPC) 93 % of control

CCc1ccc(N=C(C)c2c(O)cc(C)oc2=O)cc1
inactive: [23] 96 % of control | [25] 100 % of control | dose: 400.0 mg/kg/injection, schedule: Q01DX009 (ip), vehicle: Klucel (hydroxypropylcellulose) (HPC) 96 % of control

CC(C)C(N)C(=O)NCC(=O)NCC(=O)O (stereo not drawn) (H-[ξV]-Gly-Gly-OH)
inactive: dose: 100.0 mg/kg/injection, schedule: Q01DX009 (ip), vehicle: saline 98 % of control | [12] 102 % of control | dose: 200.0 mg/kg/injection, schedule: Q01DX009 (ip), vehicle: saline 96 % of control | [13] 94 % of control | dose: 400.0 mg/kg/injection, schedule: Q01DX009 (ip), vehicle: saline 98 % of control | [14] 100 % of control
